Data from ChEMBL document CHEMBL4261582, “Natural products as inhibitors of Leishmania major dihydroorotate dehydrogenase” (Eur J Med Chem, 2018).

Key:
Leishmania amazonensis [1] = assay: Antileishmanial activity against Leishmania amazonensis promastigotes; assay type: functional, organism-based
[2] = target: T1, Dihydroorotate dehydrogenase (fumarate) (Leishmania major) (UniProt Q4QEW7); assay: Binding affinity to Leishmania major DHODH assessed as change in melting temperature at 1000 uM by SYPRO orange dye-based differential scanning fluorimetry
T1 sequence (whole entry): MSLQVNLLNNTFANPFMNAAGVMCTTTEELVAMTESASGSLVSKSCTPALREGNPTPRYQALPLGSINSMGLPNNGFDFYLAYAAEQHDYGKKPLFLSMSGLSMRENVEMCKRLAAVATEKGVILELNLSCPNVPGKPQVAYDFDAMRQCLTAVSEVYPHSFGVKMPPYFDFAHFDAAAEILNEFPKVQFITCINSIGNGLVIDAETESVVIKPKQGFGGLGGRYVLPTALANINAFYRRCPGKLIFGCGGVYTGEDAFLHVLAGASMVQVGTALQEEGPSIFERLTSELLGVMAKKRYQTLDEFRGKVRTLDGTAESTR

[3] = target: T1, Dihydroorotate dehydrogenase (fumarate) (Leishmania major); assay: Binding affinity to Leishmania major DHODH assessed as change in melting temperature at 500 uM by SYPRO orange dye-based differential scanning fluorimetry
[4] = target: T2, Dihydroorotate dehydrogenase (fumarate) (Leishmania major, UniProt Q4QEW7); assay: Inhibition of recombinant oligo-histidine-tagged Leishmania major DHODH expressed in Escherichia coli BL21(DE3) cells using DHO as substrate measured after 60 secs; conditions: read-out: IC50
T2 sequence (Q4QEW7 whole entry): T1 sequence (whole entry)

[5] = target: T1, Dihydroorotate dehydrogenase (fumarate) (Leishmania major); assay: Inhibition of recombinant oligo-histidine-tagged Leishmania major DHODH expressed in Escherichia coli BL21(DE3) cells at 100 uM using DHO as substrate measured after 60 secs
[6] = target: Dihydroorotate dehydrogenase (quinone), mitochondrial (Homo sapiens) (UniProt Q02127); assay: Inhibition of human DHODH at 100 uM
Sequence of Dihydroorotate dehydrogenase (quinone), mitochondrial (Homo sapiens) (Q02127 whole entry): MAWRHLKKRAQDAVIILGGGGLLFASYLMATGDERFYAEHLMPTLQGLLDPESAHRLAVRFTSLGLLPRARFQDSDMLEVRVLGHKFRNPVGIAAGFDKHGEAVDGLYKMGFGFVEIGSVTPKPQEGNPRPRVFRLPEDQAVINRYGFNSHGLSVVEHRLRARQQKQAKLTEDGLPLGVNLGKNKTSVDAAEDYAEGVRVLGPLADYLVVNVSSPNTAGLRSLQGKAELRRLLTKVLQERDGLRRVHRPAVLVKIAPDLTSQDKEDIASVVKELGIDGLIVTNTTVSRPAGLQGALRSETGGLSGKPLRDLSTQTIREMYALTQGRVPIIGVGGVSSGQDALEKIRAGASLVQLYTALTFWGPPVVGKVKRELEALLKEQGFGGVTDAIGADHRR

Leishmania braziliensis [7] = assay: Antileishmanial activity against Leishmania braziliensis promastigotes; assay type: functional, organism-based
[8] = target: T1, Dihydroorotate dehydrogenase (fumarate) (Leishmania major); assay: Binding affinity to Leishmania major DHODH assessed as change in melting temperature at 100 uM by SYPRO orange dye-based differential scanning fluorimetry
[9] = target: T1, Dihydroorotate dehydrogenase (fumarate) (Leishmania major); assay: Binding affinity to Leishmania major DHODH assessed as change in melting temperature at 500 uM by differential scanning fluorimetry-based ThermoFMN assay
[10] = target: T1, Dihydroorotate dehydrogenase (fumarate) (Leishmania major); assay: Binding affinity to Leishmania major DHODH assessed as change in melting temperature at 100 uM by differential scanning fluorimetry-based ThermoFMN assay
[11] = target: T1, Dihydroorotate dehydrogenase (fumarate) (Leishmania major); assay: Binding affinity to Leishmania major DHODH assessed as change in melting temperature at 1000 uM by differential scanning fluorimetry-based ThermoFMN assay
Leishmania infantum [12] = assay: Antileishmanial activity against Leishmania infantum MHOM/MA(BE)/6 amastigotes infected in mouse J774A.1 cells after 120 hrs by Giemsa staining-based assay; assay type: functional, organism-based; conditions: MHOM/MA(BE)/6, J774.A1, 120 h
Leishmania infantum [13] = assay: Antileishmanial activity against Leishmania infantum MHOM/MA(BE)/6 promastigotes infected in mouse J774A.1 cells after 120 hrs by Giemsa staining-based assay; assay type: functional, organism-based; conditions: MHOM/MA(BE)/6, J774.A1, 120 h
Leishmania amazonensis [14] = assay: Antileishmanial activity against Leishmania amazonensis MHOM/BR/77/LTB 0016 promastigotes after 72 hrs by MTT assay; assay type: functional, organism-based; conditions: MHOM/BR/77/LTB 0016, 72 h
Trypanosoma brucei = assay: Antitrypanosomal activity against Trypanosoma brucei TC221 trypomastigotes after 24 hrs by Alamar Blue assay; assay type: functional, organism-based; conditions: TC221, 24 h
Leishmania amazonensis [15] = assay: Antileishmanial activity against Leishmania amazonensis MHOM/BR/77/LTB 0016 amastigotes infected in mouse peritoneal macrophages after 72 hrs by staining-based assay; assay type: functional, organism-based; conditions: MHOM/BR/77/LTB 0016, 72 h
[16] = tested on: Trypanosoma brucei rhodesiense; assay: Antitrypanosomal activity against Trypanosoma brucei rhodesiense STIB900 trypomastigotes after 72 hrs by Alamar Blue assay; assay type: functional, organism-based; conditions: STIB 900, 72 h
Leishmania donovani [17] = assay: Antileishmanial activity against Leishmania donovani MHOM/ET/67/L82 amastigotes after 72 hrs by Alamar Blue assay; assay type: functional, organism-based; conditions: MHOM/ET/67/L82, 72 h
Trypanosoma cruzi [18] = assay: Antitrypanosomal activity against Trypanosoma cruzi Tulahuen C2C4 trypomastigotes infected in rat skeletal myoblasts L-6 cells after 96 hrs by CPRG/Nonidet reagent based spectrophotometric method; assay type: functional, organism-based; conditions: Tulahuen C2C4, L6, 96 h
Trypanosoma congolense = assay: Antitrypanosomal activity against Trypanosoma congolense STIB 910 trypomastigotes after 24 hrs by Alamar Blue assay; assay type: functional, organism-based; conditions: STIB 910, 24 h
Trypanosoma cruzi [19] = assay: Antitrypanosomal activity against Trypanosoma cruzi Y amastigotes infected in Swiss albino mouse measured on day 7 post infection by Gential violet staining-based assay; assay type: functional, organism-based; conditions: 168 h
Trypanosoma cruzi [20] = assay: Antitrypanosomal activity against Trypanosoma cruzi trypomastigotes; assay type: functional, organism-based
[21] = tested on: Trypanosoma brucei rhodesiense; assay: Antitrypanosomal activity against Trypanosoma brucei rhodesiense STIB900 trypomastigotes; assay type: functional, organism-based
Leishmania donovani [22] = assay: Antileishmanial activity against Leishmania donovani amastigotes; assay type: functional, organism-based
Leishmania donovani [23] = assay: Antileishmanial activity against Leishmania donovani MHOM/ET/67/L82 axenic amastigotes after 72 hrs by resazurin dye-based fluorescence assay; assay type: functional, organism-based; conditions: MHOM/ET/67/L82, 72 h
[24] = tested on: Trypanosoma brucei rhodesiense; assay: Antitrypanosomal activity against Trypanosoma brucei rhodesiense STIB 900 trypomastigotes after 72 hrs by resazurin dye-based fluorescence assay; assay type: functional, organism-based; conditions: STIB 900, 72 h
Trypanosoma cruzi [25] = assay: Antitrypanosomal activity against Trypanosoma cruzi Tulahuen trypomastigotes after 96 hrs by CPRG/Nonidet reagent based spectrophotometric method; assay type: functional, organism-based
Trypanosoma cruzi [26] = assay: Antitrypanosomal activity against Trypanosoma cruzi Y amastigotes after 24 hrs by Gential violet staining-based assay; assay type: functional, organism-based
Trypanosoma cruzi [27] = assay: Antitrypanosomal activity against Trypanosoma cruzi amastigotes; assay type: functional, organism-based
Leishmania infantum [28] = assay: Antileishmanial activity against Leishmania infantum MHOM/BR/1972/LD promastigotes; assay type: functional, organism-based
Leishmania braziliensis [29] = assay: Antileishmanial activity against Leishmania braziliensis; assay type: functional, organism-based
Leishmania donovani [30] = assay: Antileishmanial activity against Leishmania donovani; assay type: functional, organism-based
Leishmania amazonensis [31] = assay: Antileishmanial activity against Leishmania amazonensis; assay type: functional, organism-based
[32] = tested on: Trypanosoma brucei rhodesiense; assay: Antitrypanosomal activity against Trypanosoma brucei rhodesiense STIB 900 trypomastigotes after 72 hrs by Alamar Blue assay; assay type: functional, organism-based; conditions: STIB 900, 72 h
Leishmania amazonensis [33] = assay: Antileishmanial activity against Leishmania amazonensis IFLA/BR/1967/PH-8 promastigotes after 48 hrs by MTT assay; assay type: functional, organism-based; conditions: IFLA/BR/1967/PH-8, 48 h
[34] = target: T1, Dihydroorotate dehydrogenase (fumarate) (Leishmania major); assay: Inhibition of recombinant oligo-histidine-tagged Leishmania major DHODH expressed in Escherichia coli BL21(DE3) cells at 150 uM using DHO as substrate measured after 60 secs
Leishmania major [35] = assay: Antileishmanial activity against Leishmania major amastigotes; assay type: functional, organism-based
Leishmania major [36] = assay: Antileishmanial activity against Leishmania major promastigotes; assay type: functional, organism-based

CC(=O)OCC1=C2[C@@H](OC(C)=O)C[C@@](C)(OC(C)=O)C(=O)CC[C@@]3(C)O[C@@H]3[C@H]2OC1=O
IC50 (Leishmania amazonensis [1]): 46.1 µM | ΔTm [2]: -0.64 °C | ΔTm [3]: -0.47 °C | IC50 [4]: 30.9 µM | inhibition [5]: 41% | inhibition [6]: 0% | IC50 (Leishmania braziliensis [7]): 27.9 µM | ΔTm [8]: -0.27 °C | ΔTm [9]: -0.41 °C | ΔTm [10]: -0.21 °C | ΔTm [11]: -0.7 °C

C/C=C(/C)C(=O)O[C@H]1[C@H](OC(C)=O)[C@]2(CO)[C@H](O)C[C@]3(C)C(=CC[C@@H]4[C@@]5(C)CC[C@H](O[C@@H]6O[C@H](C(=O)O)[C@@H](O[C@@H]7O[C@H](CO)[C@@H](O)[C@H](O)[C@H]7O)[C@H](O)[C@H]6O[C@@H]6O[C@H](CO)[C@@H](O)[C@H](O)[C@H]6O)[C@](C)(CO)[C@@H]5CC[C@]43C)[C@@H]2CC1(C)C [ESCIN IB]
IC50 [4]: 478 µM | IC50 (Leishmania infantum [12]): 1.37 µM | IC50 (Leishmania infantum [13]): > 14.1 µM

CN1[C@@H]2C[C@H](OC(=O)[C@H](CO)c3ccccc3)C[C@H]1[C@@H]1O[C@@H]12
IC50 [4]: 795 µM | IC50 (Leishmania amazonensis [14]): > 100 µM | IC50 (Trypanosoma brucei): > 100 µM | IC50 (Leishmania amazonensis [15]): > 25 µM

CC[C@H](CC[C@H](C)[C@H]1CC[C@H]2[C@@H]3CC=C4C[C@@H](O)CC[C@]4(C)[C@H]3CC[C@]12C)C(C)C
IC50 [4]: 414 µM | IC50 [16]: 86.1 µM | IC50 (Leishmania donovani [17]): 27.8 µM | IC50 (Trypanosoma cruzi [18]): 35.4 µM

CC[C@H]1CN2CCc3cc(OC)c(OC)cc3[C@@H]2C[C@@H]1C[C@H]1NCCc2cc(OC)c(OC)cc21 [EMETINE]
IC50 [4]: 1070 µM | IC50 (Trypanosoma brucei): 0.04 µM | IC50 (Trypanosoma congolense): 0.43 µM

COc1cc(O)c2c(=O)cc(-c3ccc(OC)c(OC)c3)oc2c1
IC50 (Trypanosoma cruzi [19]): 217 µM | IC50 [4]: 217 µM

C=C(C)C(=O)O[C@H]1C[C@@]2(C)OC(=CC2=O)/C(CO)=C\[C@H]2OC(=O)C(=C)[C@H]12 [GOIAZENSOLIDE]
ΔTm [2]: -6.51 °C | ΔTm [3]: -4.19 °C | IC50 [4]: 156 µM | IC50 (Trypanosoma cruzi [20]): 1.08 µM | ΔTm [8]: -0.73 °C | IC50 [21]: 0.07 µM | ΔTm [9]: -0.84 °C | IC50 (Leishmania donovani [22]): 0.45 µM | ΔTm [10]: -0.32 °C | ΔTm [11]: -1.13 °C

C=C1C(=O)O[C@@H]2/C=C(\CO)CC/C=C(\C)C[C@H](OC(=O)C(=C)[C@@H](O)CO)[C@@H]12
IC50 (Leishmania donovani [23]): 15.2 µM | IC50 [4]: 361 µM | IC50 [24]: 1.3 µM | IC50 (Trypanosoma cruzi [25]): 16.8 µM

C=C[C@]1(C)C=C2CC[C@H]3[C@@](C)(CCC[C@]3(C)C(=O)O)[C@@H]2CC1
IC50 [4]: 1320 µM | IC50 (Trypanosoma cruzi [26]): 386 µM

C=C1C(=O)O[C@@H]2/C=C(/CO)C3=CC(=O)[C@@](C)(C[C@@H](OC(=O)/C(C)=C\C)[C@@H]12)O3
IC50 (Trypanosoma cruzi [27]): 1.75 µM | IC50 [4]: 653 µM | IC50 [21]: 0.07 µM | IC50 (Leishmania infantum [28]): 28 µM | IC50 (Leishmania donovani [22]): 5.14 µM

O=c1ccc2ccccc2o1 [COUMARIN]
IC50 (Leishmania braziliensis [29]): 342 µM | IC50 [4]: 642 µM | IC50 (Leishmania donovani [30]): 342 µM | IC50 (Leishmania amazonensis [31]): 342 µM

Oc1cc(O)c2c(c1)O[C@H](c1ccc(O)c(O)c1)[C@@H](O)C2 [CIANIDANOL]
IC50 [32]: 50 µM | IC50 [4]: 98.3 µM | inhibition [5]: 52% | inhibition [6]: 38% | IC50 (Leishmania amazonensis [33]): 153 µM | IC50 (Leishmania donovani [17]): 103 µM | IC50 (Trypanosoma cruzi [18]): 310 µM

C=C1C(=O)O[C@@H]2[C@H]3C(C)=CC(=O)C3=C(C)C[C@@H](OC(=O)/C(C)=C/C)[C@@H]12
IC50 [4]: 26.8 µM | inhibition [6]: 3% | inhibition [34]: 64%

C[C@@H]1CC[C@H]2[C@@H](C)C(=O)O[C@@H]3O[C@@]4(C)CC[C@@H]1[C@]32OO4 [ARTEMISININ]
ΔTm [2]: -0.52 °C | ΔTm [3]: -0.22 °C | IC50 [4]: 172 µM | IC50 (Leishmania major [35]): 0.3 µM | inhibition [5]: 44% | inhibition [6]: 0% | ΔTm [8]: -0.14 °C | ΔTm [9]: -0.35 °C | ΔTm [10]: -0.13 °C | IC50 (Leishmania major [36]): 0.75 µM | ΔTm [11]: -0.4 °C
